Results from patent US20160002204A1 (Board of Regents, The University of Texas System, priority 2014, published 2016).

Tests used:
A549 cells = test: A549 proliferation (viability) assay, Cell Titer Fluor, 72 hours; format: cell-based; settings: Homo sapiens
In short: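 A549 cells seeded at 1000 cells/well, left 24 h, then exposed to compound for 72 h at 37 °C, 5% CO2, final DMSO 0.5% (v/v). Viability read by Cell Titer Fluor fluorescence; EC50 from four-parameter logistic fit.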

[1] = molecular target: T1, GLS1 (purified recombinant human GAC) (Homo sapiens, UniProt O94925); test: GLS1 enzymatic activity assay (dual-coupled, Amplex UltraRed/resorufin); format: biochemical
T1 sequence (O94925 55-598 isoform O94925-3 limits assumed): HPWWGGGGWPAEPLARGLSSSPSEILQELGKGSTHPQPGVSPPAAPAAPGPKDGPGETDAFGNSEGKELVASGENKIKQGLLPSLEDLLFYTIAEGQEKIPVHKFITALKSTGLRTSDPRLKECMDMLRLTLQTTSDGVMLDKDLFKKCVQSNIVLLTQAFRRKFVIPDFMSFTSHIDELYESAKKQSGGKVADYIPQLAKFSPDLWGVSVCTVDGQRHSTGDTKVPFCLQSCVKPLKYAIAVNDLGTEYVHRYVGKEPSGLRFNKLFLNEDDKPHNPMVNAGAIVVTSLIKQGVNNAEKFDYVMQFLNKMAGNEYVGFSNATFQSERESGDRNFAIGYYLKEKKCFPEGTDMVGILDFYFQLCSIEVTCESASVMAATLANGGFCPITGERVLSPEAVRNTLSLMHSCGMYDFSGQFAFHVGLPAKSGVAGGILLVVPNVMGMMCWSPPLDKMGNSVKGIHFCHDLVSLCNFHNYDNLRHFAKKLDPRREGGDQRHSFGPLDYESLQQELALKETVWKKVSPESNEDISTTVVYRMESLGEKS
In short: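 In this coupled fluorometric format, phosphate-activated GAC (2 nM, 50 mM phosphate) is pre-exposed to compound for 10 min before 1 mM glutamine addition. Product is tracked as resorufin (530/590 nm) over time or at 20 min, and potency is derived by logistic fitting.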

Structure (SMILES)	EC50 (A549 cells)	IC50 [1]
O=C(CN1CCCC(F)C1)Nc1ccn(CC(F)CCn2cc(C(=O)NCc3cccc(OC(F)(F)F)c3)nn2)c(=O)c1 (centres unmarked) [Example 283, 1-(3-fluoro-4-{4-[2-(3-fluoropiperidin-1-yl)acetamido]-2-oxo-1,2-dihydropyridin-1-yl}butyl)-N-{[3-(trifluoromethoxy)phenyl]methyl}-1H-1,2,3-triazole-4-carboxamide]	< 100 nM	< 100 nM
CO[C@@H](C(=O)Nc1ccn(CCC(F)Cn2cc(C(=O)NCc3cccc(OC(F)(F)F)c3)nn2)c(=O)c1F)c1ccccc1 (stereo partly drawn) [Example 284, 1-(2-fluoro-4-{3-fluoro-4-[(2R)-2-methoxy-2-phenylacetamido]-2-oxo-1,2-dihydropyridin-1-yl}butyl)-N-{[3-(trifluoromethoxy)phenyl]methyl}-1H-1,2,3-triazole-4-carboxamide]	< 100 nM	< 100 nM
CO[C@H](C(=O)Nc1ccn(CCC(F)Cn2cc(C(=O)NCc3cccc(OC(F)(F)F)c3)nn2)c(=O)c1F)c1ccccc1 (stereo partly drawn) [Example 285, 1-(2-fluoro-4-{3-fluoro-4-[(2S)-2-methoxy-2-phenylacetamido]-2-oxo-1,2-dihydropyridin-1-yl}butyl)-N-{[3-(trifluoromethoxy)phenyl]methyl}-1H-1,2,3-triazole-4-carboxamide]	< 100 nM	< 100 nM
O=C(NCc1cccc(OC(F)(F)F)c1)c1cn(CC(F)CCn2ccc(NC(=O)[C@@H](O)c3ccccc3)c(F)c2=O)nn1 (stereo partly drawn) [Example 286, 1-(2-fluoro-4-{3-fluoro-4-[(2S)-2-hydroxy-2-phenylacetamido]-2-oxo-1,2-dihydropyridin-1-yl}butyl)-N-{[3-(trifluoromethoxy)phenyl]methyl}-1H-1,2,3-triazole-4-carboxamide]	< 100 nM	< 100 nM
O=C(NCc1cccc(OC(F)(F)F)c1)c1cn(CC(F)CCn2ccc(NC(=O)[C@H](O)c3ccccc3)c(F)c2=O)nn1 (stereo partly drawn) [Example 287, 1-(2-fluoro-4-{3-fluoro-4-[(2R)-2-hydroxy-2-phenylacetamido]-2-oxo-1,2-dihydropyridin-1-yl}butyl)-N-{[3-(trifluoromethoxy)phenyl]methyl}-1H-1,2,3-triazole-4-carboxamide]	< 100 nM	< 100 nM
O=C(CN1CCCCC1)Nc1ccn(CCC(F)Cn2cc(C(=O)NCc3cccc(OC(F)(F)F)c3)nn2)c(=O)c1F (centres unmarked) [Example 288, 1-(2-fluoro-4-{3-fluoro-2-oxo-4-[2-(piperidin-1-yl)acetamido]-1,2-dihydropyridin-1-yl}butyl)-N-{[3-(trifluoromethoxy)phenyl]methyl}-1H-1,2,3-triazole-4-carboxamide]	< 100 nM	< 100 nM
CC(C)(C)OC(=O)N1CCC(CC(=O)Nc2ccn(CCC(F)Cn3cc(C(=O)NCc4cccc(OC(F)(F)F)c4)nn3)c(=O)c2F)CC1 (centres unmarked) [Example 289, tert-butyl 4-{[(3-fluoro-1-{3-fluoro-4-[4-({[3-(trifluoro-methoxy)phenyl]methyl}carbamoyl)-1H-1,2,3-triazol-1-yl]butyl}-2-oxo-1,2-dihydropyridin-4-yl)carbamoyl]methyl}piperidine-1-carboxylate]	< 100 nM	< 100 nM
O=C(CN1CCC(F)(F)CC1)Nc1ccn(CCC(F)Cn2cc(C(=O)NCc3cccc(OC(F)(F)F)c3)nn2)c(=O)c1F (centres unmarked) [Example 290, 1-(4-{4-[2-(4,4-difluoropiperidin-1-yl)acetamido]-3-fluoro-2-oxo-1,2-dihydropyridin-1-yl}-2-fluorobutyl)-N-{[3-(trifluoromethoxy)phenyl]methyl}-1H-1,2,3-triazole-4-carboxamide]	< 100 nM	< 100 nM
O=C(CN1CCCC(F)C1)Nc1ccn(CCC(F)Cn2cc(C(=O)NCc3cccc(OC(F)(F)F)c3)nn2)c(=O)c1F (centres unmarked) [Example 291, 1-(2-fluoro-4-{3-fluoro-4-[2-(3-fluoropiperidin-1-yl)acetamido]-2-oxo-1,2-dihydropyridin-1-yl}butyl)-N-{[3-(trifluoromethoxy)phenyl]methyl}-1H-1,2,3-triazole-4-carboxamide]	< 100 nM	< 100 nM
CCOC(=O)N1CCN(CC(=O)Nc2ccn(CCC(F)Cn3cc(C(=O)NCc4cccc(OC(F)(F)F)c4)nn3)c(=O)c2F)CC1 (centres unmarked) [Example 292, ethyl 4-{[(3-fluoro-1-{3-fluoro-4-[4-({[3-(trifluoro-methoxy)phenyl]methyl}carbamoyl)-1H-1,2,3-triazol-1-yl]butyl}-2-oxo-1,2-dihydropyridin-4-yl)carbamoyl]methyl}piperazine-1-carboxylate]	< 100 nM	< 100 nM
O=C(CN1CCCC1)Nc1ccn(CCC(F)Cn2cc(C(=O)NCc3cccc(OC(F)(F)F)c3)nn2)c(=O)c1F (centres unmarked) [Example 293, 1-(2-fluoro-4-{3-fluoro-2-oxo-4-[2-(pyrrolidin-1-yl)acetamido]-1,2-dihydropyridin-1-yl}butyl)-N-{[3-(trifluoromethoxy)phenyl]methyl}-1H-1,2,3-triazole-4-carboxamide]	100 to 500 nM	< 100 nM
CC1(C)CN(CC(=O)Nc2ccn(CCC(F)Cn3cc(C(=O)NCc4cccc(OC(F)(F)F)c4)nn3)c(=O)c2F)CCO1 (centres unmarked) [Example 294, 1-(4-{4-[2-(2,2-dimethylmorpholin-4-yl)acetamido]-3-fluoro-2-oxo-1,2-dihydropyridin-1-yl}-2-fluorobutyl)-N-{[3-(trifluoromethoxy)phenyl]methyl}-1H-1,2,3-triazole-4-carboxamide]	< 100 nM	< 100 nM
O=C(CN1CCCC(F)(F)C1)Nc1ccn(CCC(F)Cn2cc(C(=O)NCc3cccc(OC(F)(F)F)c3)nn2)c(=O)c1F (centres unmarked) [Example 295, 1-(4-{4-[2-(3,3-difluoropiperidin-1-yl)acetamido]-3-fluoro-2-oxo-1,2-dihydropyridin-1-yl}-2-fluorobutyl)-N-{[3-(trifluoromethoxy)phenyl]methyl}-1H-1,2,3-triazole-4-carboxamide]	< 100 nM	< 100 nM
CC(C)(C)OC(=O)N1CCN(CC(=O)Nc2ccn(CCC(F)Cn3cc(C(=O)NCc4cccc(OC(F)(F)F)c4)nn3)c(=O)c2F)CC1 (centres unmarked) [Example 296, tert-butyl 4-{[(3-fluoro-1-{3-fluoro-4-[4-({[3-(trifluoro-methoxy)phenyl]methyl}carbamoyl)-1H-1,2,3-triazol-1-yl]butyl}-2-oxo-1,2-dihydropyridin-4-yl)carbamoyl]methyl}piperazine-1-carboxylate]	< 100 nM	< 100 nM
CC(C)(C)OC(=O)N1CC2(CN(CC(=O)Nc3ccn(CCC(F)Cn4cc(C(=O)NCc5cccc(OC(F)(F)F)c5)nn4)c(=O)c3F)C2)C1 (centres unmarked) [Example 297, tert-butyl 6-{[(3-fluoro-1-{3-fluoro-4-[4-({[3-(trifluoro-methoxy)phenyl]methyl}carbamoyl)-1H-1,2,3-triazol-1-yl]butyl}-2-oxo-1,2-dihydropyridin-4-yl)carbamoyl]methyl}-2,6-diazaspiro[3.3]heptane-2-carboxylate]	< 100 nM	< 100 nM
Cc1ccc(CNC(=O)c2cn(CC(F)CCn3ccc(NC(=O)OC(C)(C)C)c(F)c3=O)nn2)cn1 (centres unmarked) [Example 298, tert-butyl N-{3-fluoro-1-[3-fluoro-4-(4-{[(6-methylpyridin-3-yl)methyl]carbamoyl}-1H-1,2,3-triazol-1-yl)butyl]-2-oxo-1,2-dihydropyridin-4-yl}carbamate]	500 to 5000 nM	100 to 500 nM
O=C(CC1CCNCC1)Nc1ccn(CCC(F)Cn2cc(C(=O)NCc3cccc(OC(F)(F)F)c3)nn2)c(=O)c1F (centres unmarked) [Example 299, 1-(2-fluoro-4-{3-fluoro-2-oxo-4-[2-(piperidin-4-yl)acetamido]-1,2-dihydropyridin-1-yl}butyl)-N-{[3-(trifluoromethoxy)phenyl]methyl}-1H-1,2,3-triazole-4-carboxamide]	500 to 5000 nM	100 to 500 nM
CCOC(=O)N1CCC(CC(=O)Nc2ccn(CCC(F)Cn3cc(C(=O)NCc4cccc(OC(F)(F)F)c4)nn3)c(=O)c2F)CC1 (centres unmarked) [Example 300, ethyl 4-{[(3-fluoro-1-{3-fluoro-4-[4-({[3-(trifluoro-methoxy)phenyl]methyl}carbamoyl)-1H-1,2,3-triazol-1-yl]butyl}-2-oxo-1,2-dihydropyridin-4-yl)carbamoyl]methyl}piperidine-1-carboxylate]	< 100 nM	< 100 nM
O=C(CC1CCN(C(=O)CC(F)(F)F)CC1)Nc1ccn(CCC(F)Cn2cc(C(=O)NCc3cccc(OC(F)(F)F)c3)nn2)c(=O)c1F (centres unmarked) [Example 301, 1-[2-fluoro-4-(3-fluoro-2-oxo-4-{2-[1-(3,3,3-trifluoropropanoyl)piperidin-4-yl]acetamido}-1,2-dihydropyridin-1-yl)butyl]-N-{[3-(trifluoromethoxy)phenyl]methyl}-1H-1,2,3-triazole-4-carboxamide]	< 100 nM	< 100 nM
